Data reported in patent US20130089912A1, “METHODS AND COMPOSITIONS FOR THE STABILIZATION OF BIOLOGIC MATERIAL” (priority 2011, published 2013).
Values joined by “and” are separate entries in the source; they are usually repeats but may differ in a detail not shown here. Identical values can stand only once. Counter-ions that a name gives are not always drawn. Like-named read-outs stand apart in the source and are kept apart here.

Tests used:
[1] = Differential scanning calorimetry of DPPC unilamellar vesicles mixed with test compound (screening assay for toxic membrane interactions)
[2] = system: mouse macrophage cell line; settings: cited from earlier work; for Log EC50: logarithm of EC50 in uM, matches the EC50 values of Weaver et al. (2010)
[3] = choline salt of the named anion
[4] = 10 mM compound, DPPC liposomes, HEPES buffer pH 7.40
[5] = 10 mM compound, DPPC liposomes, HEPES buffer pH 7.40, scan 20 to 50° C., equilibrium scans
[6] = 10 mM compound, DPPC liposomes, HEPES buffer pH 7.40, NR = not resolvable
[7] = 10 mM compound, compared to DPPC control scan from same LUV batch solution
[8] = cellular toxicity, values reproduced from Weaver et al. (2010)
[9] = choline salt 10 mM, DPPC vesicle assay, Table 2
[10] = 10 mM compound, initial heating scan

Compound	Effect on DPPC main gel-liquid crystal phase transition (in words) ([1]; 10 mM compound)	Main Transition ΔH [1, 4]	Main Transition ΔT(1/2) [1, 4]	Main Transition Tm [1, 5]	Pretransition ΔH [1, 6]	Change in Main Transition ΔTm [1, 7]	Change in Main Transition ΔΔH [1, 7]	Change in Main Transition ΔΔT(1/2) [1, 7]	Change in Pretransition ΔH [1, 7]	EC50 [2, 8]	Δ Tm [1, 9]	ΔΔ H [1, 9]	ΔΔ T(1/2) [1, 9]	also measured
2-hydroxyethyl(trimethyl)azanium dibutyl phosphate [CDBP]	no statistically significant effect	7831 cal/mol	1.50 °C	41.05 °C	440 cal/mol	−0.5%	+2%	−6%	−20%	9 mM and 9.1 mM	–	–	–	–
choline lactate	a moderate increase in Tm and a moderate decrease in enthalpy	–	–	–	–	–	–	–	–	–	+0.37 C	−480 cal/mole/ C	−0.06 C	Log Pow [3]: −1.73
choline formate	–	–	–	–	–	–	–	–	–	–	–	−733 cal/mole/ C	−0.02 C	Effect on DPPC main gel-liquid crystal phase transition (in words) [1]: a moderate increase in Tm and a moderate decrease in enthalpy; Δ Tm [1]: +0.31 C
choline tartarate	–	–	–	–	–	–	–	–	–	–	–	+121.9 cal/mole/ C	−0.03 C	Δ Tm [1]: +0.35 C
2-hydroxyethyl(trimethyl)azanium bis(2,4,4-trimethylpentyl)phosphinate [CTMP]	large decrease in Tm and enthalpy, and increased cooperativity	3580 cal/mol	1.48 °C	32.6 °C and 33 °C and 32.58 °C	–	−21%	−52%	−17%	−100%	< 0.25 mM	−8.08 C	−2011 cal/mole/ C	−0.37 C	Decrease of peak width (ΔΔT1/2) compared to control lipid vesicles ([1]; 10 mM compound): 17%; Reduction of main transition Tm compared to DPPC alone ([1]; 10 mM compound): 21%; Reduction of transition enthalpy (in words) ([1]; 10 mM compound, compared to control lipid vesicles): half; Pretransition peak of DPPC (in words) ([1]; 10 mM compound, peak normally at approximately 34° C.): below resolvable limits; Log Pow [3]: 3.60; Log EC50 [2]: 2.39 uM
[Cl-].[Na+] [NaCl, sodium chloride, reference compound]	–	–	–	–	–	–	–	–	–	–	–	–	–	Change in Main Transition ΔTm [1]: +0.8%; Change in Main Transition ΔΔH [1]: +17%; Change in Main Transition ΔΔT(1/2) [1]: −4%; Change in Pretransition ΔH [1]: +103%; Main Transition Tm ([1]; pH 7.4): 41.72 °C; Main Transition ΔH ([1]; pH 7.4): 9823 cal/mol; Main Transition ΔT(1/2) ([1]; pH 7.4): 1.53 °C; Pretransition ΔH ([1]; pH 7.4): 508 cal/mol; EC50 [2]: 63 mM and 60 mM
CC(C)Cc1ccc(C(C)C(=O)[O-])cc1.[Na+] (stereo not drawn) [Ibuprofen sodium salt, ibuprofen sodium salt, reference compound]	–	7222 cal/mol	1.79 °C	38.82 °C	375 cal/mol	−6%	−11%	+12%	−13%	–	–	–	–	–
C[N+](C)(C)CCO.[Cl-] [CCL, choline chloride, reference compound]	–	–	–	–	–	–	–	–	–	–	–	–	–	Change in Main Transition ΔTm [1]: +0.8%; Change in Main Transition ΔΔH [1]: +15%; Change in Main Transition ΔΔT(1/2) [1]: −3%; Change in Pretransition ΔH [1]: +51%; Main Transition Tm ([1]; pH 7.4): 41.70 °C; Main Transition ΔH ([1]; pH 7.4): 9633 cal/mol; Main Transition ΔT(1/2) ([1]; pH 7.4): 1.55 °C; Pretransition ΔH ([1]; pH 7.4): 378 cal/mol; EC50 [2]: 34 mM
CC(=O)CCC(=O)O [Levulinate]	a moderate decrease in Tm, and a large decrease in enthalpy	–	–	–	–	–	–	–	–	–	−0.21 C	−2155 cal/mole/ C	0.39 C	–
CNCCC=C1c2ccccc2CCc2ccccc21 [Nortriptyline hydrochloride, nortriptyline hydrochloride, reference compound]	shifted to lower temperatures, with notable main peak broadening	8078 cal/mol	1.41 °C	30.66 °C	–	−26%	+8%	+6%	−100%	–	–	–	–	–
2-hydroxyethyl(trimethyl)azanium bis(2-ethylhexyl)phosphate [CBEH]	–	77 cal/mol	2.95 °C	42.49 °C	66 cal/mol	+2.5%	−99%	+16%	−82%	< 0.3 mM	–	–	–	Main transition temperature [1, 10]: ~41 °C; Pretransition temperature [1, 10]: ~33 °C; Reduction in main transition enthalpy compared to DPPC in HEPES alone [1, 10]: 99%; Reduction in pretransition enthalpy compared to DPPC in HEPES alone [1, 10]: 82%; Third prominent peak (subtransition) temperature [1, 10]: 27 °C; New peak Tm ([1]; DPPC-CBEH dispersions run starting at 10° C., first heating scan): 21 °C
C[N+](C)(C)CCO.O=P([O-])(O)O [CDHP, 2-hydroxyethyl(trimethyl)azanium dihydrogen phosphate]	no statistically significant effect	7949 cal/mol	1.33 °C	41.69 °C	248 cal/mol	+0.7%	+3%	−6%	−54%	20 mM	+0.52 C	−76 cal/mole/ C	0.131 C	Log Pow [3]: −3.15; Log EC50 [2]: 4.31 uM
